Reference: PubChem BioAssay (NCI)
Values joined by “and” are separate entries in the source; they are usually repeats but may differ in a detail not shown here. Equal entries are not always repeated.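 Dose response: 5 concentrations. Exposure: 48 h. Format: 96-well plates. Endpoint: linear interpolation; highest concentration if not reached. GI50 marks 50% less growth. TGI is the concentration that stops growth completely.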

Experiments:
Experiment in all cases: inhibition of tumour cell growth, NCI panel, 48 h
SK-MEL-2 melanoma = test system: SK-MEL-2 melanoma
KM12 colon = test system: KM12 colon
LOX IMVI melanoma = test system: LOX IMVI melanoma
CCRF-CEM leukemia = test system: CCRF-CEM leukemia
COLO 205 colon = test system: COLO 205 colon
NCI-H460 lung = test system: NCI-H460 lung
A549 NSCLC = test system: A549 NSCLC
SF-295 CNS = test system: SF-295 CNS
HS 578T breast = test system: HS 578T breast
TK-10 renal = test system: TK-10 renal
T-47D breast = test system: T-47D breast

SMILES	TGI (SK-MEL-2 melanoma)	TGI (KM12 colon)	TGI (LOX IMVI melanoma)	TGI (CCRF-CEM leukemia)	TGI (COLO 205 colon)	TGI (NCI-H460 lung)	TGI (A549 NSCLC)	TGI (SF-295 CNS)	TGI (HS 578T breast)	TGI (TK-10 renal)	TGI (T-47D breast)	GI50 (SK-MEL-2 melanoma)	GI50 (KM12 colon)	GI50 (LOX IMVI melanoma)	GI50 (CCRF-CEM leukemia)	GI50 (TK-10 renal)	GI50 (NCI-H460 lung)	GI50 (SF-295 CNS)	GI50 (T-47D breast)
Nc1ccn(C2OC(COP(=O)(O)Oc3ccccc3)C(O)C2O)c(=O)n1 (centres undefined)	> 100 µM	> 100 µM	> 100 µM	> 100 µM	> 100 µM	> 100 µM	> 100 µM	> 100 µM	–	–	–	–	–	–	–	–	–	–	–
CC(=O)OC[C@@]12C[C@H]3C(=O)C(C)(C)C[C@H]3[C@]1(C)[C@@H](OC(C)=O)[C@]1(O)[C@H]([C@@H](OC(=O)c3ccccc3)[C@@H](C)[C@H]1OC(C)=O)[C@H]2OC(C)=O	> 20 µM	> 20 µM	> 20 µM	> 20 µM	> 20 µM	> 20 µM	–	> 20 µM	> 20 µM	> 20 µM	> 20 µM	–	–	–	–	–	–	–	–
CC(C)[Si]1(C(C)C)OCC2OC(n3ccc(=O)[nH]c3=O)C(O)(CO)C2O[Si](C(C)C)(C(C)C)O1 (centres undefined)	31 µM	31 µM	30.7 µM	30.7 µM	31.7 µM	–	27.9 µM	28.5 µM	11.4 µM	31.3 µM	30.2 µM	–	–	–	–	–	–	–	–
C=C(Cl)C(Cl)(CBr)CCC(Cl)C(C)(C)Cl (centres undefined)	1.84 µM	1.94 µM	28 µM	29.2 µM	10.5 µM	2.83 µM	12.7 µM	7.73 µM	0.284 µM	2.71 µM	–	–	–	–	–	–	–	–	–
Cc1nc(-c2nc([N+](=O)[O-])c([N+](=O)[O-])[nH]2)cs1	> 100 µM	> 100 µM	> 100 µM	> 100 µM	> 100 µM	> 100 µM	> 100 µM	> 100 µM	–	> 100 µM	–	–	–	–	–	–	–	–	–
C[C@@H]1OC(=O)C[C@H]2CC(=O)N(CCc3cn(S(=O)(=O)C(F)(F)F)c4ccccc34)C[C@@H]21	> 100 µM	> 100 µM	–	> 100 µM	> 100 µM	> 100 µM	> 100 µM	> 100 µM	> 100 µM	> 100 µM	> 100 µM	–	–	–	–	–	–	–	–
O=C(CCN1CCCC1)Nc1ccc2c(NCCCc3ccccc3)c3ccccc3nc2c1	3.24 µM	2.54 µM	2.04 µM	3.03 µM	–	1.6 µM	–	2.59 µM	–	3.41 µM	3.91 µM	1.69 µM	1.17 µM	0.739 µM	0.562 µM	1.66 µM	0.46 µM	1.31 µM	1.34 µM
CC(=O)Oc1c(OC(C)=O)c(-c2ccc(O)c(O)c2)c(O)c(O)c1-c1ccc(O)cc1	> 100 µM and 92 µM	> 100 µM	94 µM and 95.9 µM	67.8 µM and > 100 µM	> 100 µM	> 100 µM	> 100 µM	> 100 µM	–	–	–	56.5 µM	–	–	24.5 µM	–	69.7 µM	–	–
Cc1ccc(/C=N/Nc2ncccn2)s1	> 100 µM	> 100 µM	> 100 µM	> 100 µM	> 100 µM	–	> 100 µM	> 100 µM	> 100 µM	> 100 µM	> 100 µM	–	–	–	–	–	–	–	–
CC1OC(=O)c2ccccc2NC1=O (centres undefined)	> 100 µM	> 100 µM	> 100 µM	> 100 µM	> 100 µM	> 100 µM	> 100 µM	> 100 µM	> 100 µM	> 100 µM	–	–	–	–	–	–	–	–	–
CC(C)(C)OC(=O)NC(Cc1ccc([N+](=O)[O-])cc1)C(=O)NC(CCCCNC(=O)OCc1ccccc1)C(=O)ON1C(=O)CCC1=O (centres undefined)	–	> 100 µM	> 100 µM	–	> 100 µM	> 100 µM	> 100 µM	> 100 µM	> 100 µM	> 100 µM	–	–	–	–	–	–	–	–	–
CCN(CC)CCNc1ccc(C)c2sc3ccc(O)cc3c(=O)c12	3.24 µM	3.39 µM	2.18 µM	1.06 µM	3.27 µM	1.37 µM	1.91 µM	1.98 µM	–	9.95 µM	–	–	–	–	–	–	–	–	–
Cc1ccc(S(=O)(=O)N/N=C2\C=C[C@]3(CC2)C(=O)N(C)c2ccccc23)cc1	> 100 µM	> 100 µM	> 100 µM	> 100 µM	> 100 µM	> 100 µM	> 100 µM	> 100 µM	> 100 µM	–	> 100 µM	–	–	–	–	–	–	–	–
Cc1cn(C2CC(N=[N+]=[N-])C(CO[Si](C)(C)C(C)(C)C)O2)c(=O)[nH]c1=O (centres undefined)	33.8 µM	32.5 µM	31.5 µM	60.9 µM	35.6 µM	–	87.8 µM	34.6 µM	40.1 µM	30.5 µM	75.6 µM	–	–	–	–	–	–	–	–
CC(C)(C)C=C=C(C(C)(C)C)P(=O)(O)O	> 100 µM	> 100 µM	> 100 µM	–	> 100 µM	> 100 µM	> 100 µM	> 100 µM	> 100 µM	> 100 µM	> 100 µM	–	–	–	–	–	–	–	–
CC1=C(C(=O)OC(C)C)C(c2ccccc2[N+](=O)[O-])C(C(=O)OC(CO[N+](=O)[O-])CO[N+](=O)[O-])=C(C)N1 (centres undefined)	9.64 µM	22.8 µM	11.3 µM	–	38.8 µM	16 µM	12.9 µM	6.95 µM	25.8 µM	> 100 µM	> 100 µM	–	–	–	–	–	–	–	–
COC(=O)C1=C(O)C(C(=O)OC)[C@]2(O)[C@H](C(=O)OC)[C@H]1C[C@@H](c1ccc(OC)cc1)[C@H]2C(=O)OC (some centres undefined)	56.3 µM	41.3 µM	78.5 µM	–	> 100 µM	50 µM	62.8 µM	> 100 µM	> 100 µM	> 100 µM	> 100 µM	–	–	–	–	–	–	–	–
COc1ccc(C)cc1NC(=S)N/N=C/c1ccc(SC)cc1	> 100 µM	> 100 µM	> 100 µM	> 100 µM	> 100 µM	–	> 100 µM	> 100 µM	> 100 µM	–	> 100 µM	–	–	–	–	–	–	–	–
COc1nc(=O)n(C2CC(N=[N+]=[N-])C(CO)O2)cc1C (centres undefined)	> 100 µM	> 100 µM	> 100 µM	> 100 µM	–	> 100 µM	> 100 µM	> 100 µM	> 100 µM	> 100 µM	> 100 µM	–	–	–	–	–	–	–	–
COc1cc(CC2c3cc(OC)c(OC)cc3CCN2C)c(Oc2cc3c(cc2OC)-c2c(OC)c(OC)c(OC)c4c2C(C3)N(C)CC4)cc1OC (centres undefined)	28.8 µM	29.3 µM	22.6 µM	> 50.9 µM	20.9 µM	32.7 µM	30.6 µM	28.8 µM	–	29.5 µM	–	–	–	–	–	–	–	–	–
